Measurements as given in patent US12060355B2, “Compounds for use in the treatment of fascioliasis” (Merck Patent GmbH, priority 2018, dated 2024).
Read-outs that look alike come from different tables or passages of the source.

How the values were obtained:
[1] = system: S. mansoni juvenile worms; experiment: S. mansoni juvenile worm assay, in vitro; type: cell-based; conditions: Schistosoma mansoni, read-out: S. mansoni Juvenile
Protocol: The routine biological assays using adult or juvenile S. mansoni worms and cytotoxicity assays using MRC-5 cells have been disclosed previously in Mansour, N. R., et al. (2016). “High Throughput Screening Identifies Novel Lead Compounds with Activity against Larval, Juvenile and Schistosoma mansoni PLoS Negl Trop Dis 10(4): e0004659. Cytotoxicity assays using the HepG2 cell line were carried out as described in Molecular Diversity (2015) 19, 251-261. • (a) F. hepatica adult fluke motility score tested at 5 μM. Motility is scored as per the table below: • Good movement Score 1 • (Curled, sticking on wall, movement on petri plate or conical flask) • Moderate movement Score 2 • (Less vigor but more than 10 seconds pulses or peristaltic waves) • Resting Score 3 • (Less than 10 second pulses in head and body) • Apathetic Score 4 • (Head and body with less than 2 second pulses) • Faint movement of suckers Score 5 • (Movement of oral or ventral suckers only, whole body paralyzed) • Inert Score 6 • (No movement at all or dead) • (b) S. mansoni adult worms • (c) S. mansoni juvenile worms • (d) S. haemotobium adult worms • (e) Cytotoxicity against human MRC-5 cell line • (f) Cytotoxicity against human HepG2 cell lines

[2] = system: human HepG2 cell lines; type: cell-based; conditions: human HepG2 cell line
[3] = system: F. hepatica adult fluke; experiment: F. hepatica adult fluke motility score, in vitro; type: cell-based, Fasciola hepatica; design: key: Good movement Score 1 • (Curled, sticking on wall, movement on petri plate or conical flask); Moderate movement Score 2 • (Less vigor but more than 10 seconds pulses or peristaltic waves); Resting Score 3 • (Less than 10 second pulses in head and body); Apathetic Score 4 • (Head and body with less than 2 second pulses); Faint movement of suckers Score 5 • (Movement of oral or ventral suckers only, whole body paralyzed); Inert Score 6 • (No movement at all or dead); conditions: for F. hepatica motility score after 24 h / F. hepatica motility score after 48 h / F. hepatica motility score after 72 h: adult fluke
Description: The routine biological assays using adult liver fluke are described in Alessandra Crusco, Cinzia Bordoni, Anand Chakroborty, Kezia C. L. Whatley, Helen Whiteland, Andrew D. Westwell, Karl F. Hoffmann, “Design, synthesis and anthelmintic activity of 7-keto-sempervirol analogues”, European Journal of Medicinal Chemistry, Volume 152, 2018, Pages 87-100.
The routine biological assays using adult or juvenile S. mansoni worms and cytotoxicity assays using MRC-5 cells have been disclosed previously in Mansour, N. R., et al. (2016). “High Throughput Screening Identifies Novel Lead Compounds with Activity against Larval, Juvenile and Schistosoma mansoni PLoS Negl Trop Dis 10(4): e0004659. […] Motility is scored as per the table below: • Good movement Score 1 • (Curled, sticking on wall, movement on petri plate or conical flask) • Moderate movement Score 2 • (Less vigor but more than 10 seconds pulses or peristaltic waves) • Resting Score 3 • (Less than 10 second pulses in head and body) • Apathetic Score 4 • (Head and body with less than 2 second pulses) • Faint movement of suckers Score 5 • (Movement of oral or ventral suckers only, whole body paralyzed) • Inert Score 6 • (No movement at all or dead) • (b) S. mansoni adult worms • (c) S. mansoni juvenile worms • (d) S. haemotobium adult worms • (e) Cytotoxicity against human MRC-5 cell line • (f) Cytotoxicity against human HepG2 cell lines

[4] = 5 μM, score 1 (good movement) to 6 (inert)

## COc1ccc(-c2c(C(C)C)nc3cnc(-c4cccc(C(F)(F)F)c4)cn23)cc1OP(=O)(O)O [Example 28, 2-methoxy-5-[2-(propan-2-yl)-6-[3-(trifluoromethyl)phenyl]imidazo[1,2-a]pyrazin-3-yl]phenoxyphosphonic acid]
[1]
  IC50: 183 nM
[2]
  Cytotox HepG2: 19.2 µM

## Cc1nc2cnc(-c3ccc(F)c(C(F)(F)F)c3)cn2c1-c1c(F)cc(OP(=O)(O)O)cc1F [Example 41, 3,5-difluoro-4-{6-[4-fluoro-3-(trifluoromethyl)phenyl]-2-methyl-imidazo[1,2-a]pyrazin-3-yl}phenoxyphosphonic acid]
[1]
  IC50: 100 nM
[2]
  Cytotox HepG2: 6.8 µM

## CC(C)c1nn2cnc(-c3ccc(F)c(C(F)(F)F)c3)cc2c1-c1c(F)cc(O)cc1F [Example 47, 3,5-difluoro-4-(5-(4-fluoro-3-(trifluoromethyl)phenyl)-2-isopropylpyrazolo[1,5-c]pyrimidin-3-yl)phenol]
[3]; [4]
  F. hepatica motility score after 24 h: (6, 6, 6) at 5 μM
[3]; 5 μM, score 1 to 6 (inert)
  F. hepatica motility score after 48 h: (6, 6, 6) at 5 μM
  F. hepatica motility score after 72 h: (6, 6, 6) at 5 μM
[2]
  Cytotox HepG2: 8.9 µM

## Fc1ccc(-c2cn3c(-c4ccc5[nH]ncc5c4F)c(C(F)(F)F)nc3cn2)cc1C(F)(F)F [Example 50, 3-(4-Fluoro-1H-indazol-5-yl)-6-(4-fluoro-3-trifluoromethylphenyl)-2-trifluoromethyl-imidazo[1,2-a]pyrazine]
[3]; 0.04 μM
  Mean motility score of F hepatica at 24 h: 1, 1, 1
  Mean motility score of F hepatica at 48 h: 1, 1, 1
  Mean motility score of F hepatica at 72 h: 1, 1, 1
[3]; 0.2 μM
  Mean motility score of F hepatica at 24 h: 2
  Mean motility score of F hepatica at 48 h: 2
  Mean motility score of F hepatica at 72 h: 2.5
[3]; 1 μM
  Mean motility score of F hepatica at 24 h: 6, 6, 6
  Mean motility score of F hepatica at 48 h: 6, 6, 6
  Mean motility score of F hepatica at 72 h: 6, 6, 6
[3]; 5 μM
  Mean motility score of F hepatica at 24 h: 6, 6, 6
  Mean motility score of F hepatica at 48 h: 6, 6, 6
  Mean motility score of F hepatica at 72 h: 6, 6, 6
[3]; [4]
  F. hepatica motility score after 24 h: (6, 6, 6) at 5 μM
[3]; 5 μM, score 1 to 6 (inert)
  F. hepatica motility score after 48 h: (6, 6, 6) at 5 μM
  F. hepatica motility score after 72 h: (6, 6, 6) at 5 μM

## CC(C)c1nc2cnc(-c3ccc(F)c(C(F)(F)F)c3)nc2n1-c1c(F)cc(O)cc1F [Example 89, 3,5-Difluoro-4-[2-(4-fluoro-3-trifluoromethyl-phenyl)-8-isopropyl-purin-9-yl]-phenol]
[3]; [4]
  F. hepatica motility score after 24 h: (6, 6, 6)
[3]; 5 μM, score 1 to 6 (inert)
  F. hepatica motility score after 48 h: (6, 6, 6)
  F. hepatica motility score after 72 h: (6, 6, 6)
[2]
  Cytotox HepG2: 4.8 µM

## COc1ccc(-c2c(C)nc3ccc(-c4cccc(C(F)(F)F)c4)cn23)cc1O [Example 91, 2-methoxy-5-[2-methyl-6-[3-(trifluoromethyl)phenyl]imidazo[1,2-a]pyridin-3-yl]phenol]
[1]; juvenile worms in vitro, IC50
  IC50: 530 nM

## COc1ccc(-c2c(C(C)C)nc3ccc(-c4cccc(C(F)(F)F)c4)cn23)cc1O [Example 92, 2-methoxy-5-[2-isopropyl-6-[3-(trifluoromethyl)phenyl]imidazo[1,2-a]pyridin-3-yl]phenol]
[1]; juvenile worms in vitro, IC50
  IC50: 360 nM

## Cc1nc2ccc(-c3cccc(C(F)(F)F)c3)cn2c1-c1ccc(O)cc1F [Example 93, 3-fluoro-4-[2-methyl-6-[3-(trifluoromethyl)phenyl]imidazo[1,2-a]pyridin-3-yl]phenol]
[1]; juvenile worms in vitro, IC50
  IC50: 830 nM

## CSc1nc2cc(Cl)c(Oc3cccc(Cl)c3Cl)cc2[nH]1 [Triclabendazole, reference compound]
[3]; 40 μM
  Mean motility score of F hepatica at 24 h: 2
  Mean motility score of F hepatica at 48 h: 3.5
  Mean motility score of F hepatica at 72 h: 6
[3]; 40 μM, score 1 to 6 (inert)
  F. hepatica motility score after 24 h: 3
  F. hepatica motility score after 48 h: 6
  F. hepatica motility score after 72 h: 6
